Measured values: US20020068367A1, “Linker and method for solid phase combinatorial synthesis” (priority 2000, published 2002)

Key:
fluorescein-streptavidin = biological target: T1, fluorescein-streptavidin (Streptomyces avidinii, UniProt P22629); test: Standard protein-binding assay: fluorescein-streptavidin binding to linker on streptavidin-coated 96-well plates; settings: for Fluorescence emission detected (qualitative): linker and fluorescein-labeled protein present
T1 construct: purchased Calbiochem-Novabiochem Corp., La Jolla, Calif; 189734
T1 sequence (P22629 25-183): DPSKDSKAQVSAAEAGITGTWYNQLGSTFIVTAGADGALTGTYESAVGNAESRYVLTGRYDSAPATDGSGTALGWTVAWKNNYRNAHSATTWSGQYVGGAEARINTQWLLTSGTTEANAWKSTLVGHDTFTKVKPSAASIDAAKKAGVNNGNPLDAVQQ
Excerpt: (§1) Referring to the drawings, and particularly to FIG. 1, generic reactions illustrating two variations of the screening system of the present invention are shown. FIGS. 1a-1d illustrate the generic System 1 reaction wherein a compound comprised of a tether connecting biotin with a chemical compound containing a nitrophenyl group is applied to a streptavidin coated solid phase. The amount of fluorescein-protein complex (c), where the exemplary protein is fluorescein-anti-DNP antibody, bound to the biotin-tether-nitrophenyl complex is characterized by detecting the magnitude of fluorescence emission in each individual well at the completion of the reaction. Similarly, FIG. 1e-1h illustrates the generic System 2 reaction wherein a tether connects 2 biotin groups together and streptavidin is coated on the solid phase. As in the System 1 reaction, the amount of fluorescein-protein complex (g), where the exemplary protein is fluorescein-streptavidin, bound to the biotin-tether-biotin complex is characterized through the detection of fluorescence emissions in each individual well at the completion of the reaction.
In the quantification of the interaction between fluoresceinated-proteins and linkers is characterized by detecting the magnitude of fluorescence emissions in each individual well at the completion of standard protein-binding assay procedures.
(§2) A standard protein-binding assay comprises a multi-step process in which strepeavidin pre-treated 96-well plates are exposed to a solution containing linker followed by exposure to a solution containing fluorescein-labeled protein. The 96-well plates are coated with a commercially available streptavidin solution (cat #BPS00100; Xenopore Corp., Hawthorne, N.J.) and then pre-incubated with 300 μl PBS buffer for 10 minutes at room temperature. To complete the pre-incubation process, the PBS buffer is discarded and the plates are further washed five times with water. Once the plate is sufficiently washed, add to the wells 100 μl of pre-mixed binding buffer containing the desired linker, the preparation of which is as described above. After addition of the linker solution, the plate is incubated at 37° C. for one hour. Upon completion of incubation, the linker solution is discarded and the plate is washed with five changes of water. For the fifth step of the assay process, 100 μl of a premixed reaction solution containing 1 M Tris, 0.5 M NaCl and the fluorescein-labeled proteins are added to selected wells of the plate with bound linker. The fluorescein conjugated proteins, anti-dinitrophenyl antibody (rabbit IgG fraction, cat #A-6423) (anti-DNP) and streptavidin (cat #189734) are commercially available from Molecular Probes, Inc., Eugene, Oreg. and Calbiochem Inc., San Diego, Calif. Upon addition of the protein solutions, the plate is further incubated at 37° C. for one hour. Following the incubation period, the reacting solution in each well is discarded and the wells are washed with five changes of 1 M Tris or 30 changes of water. After this final washing step, 250 μl of elution buffer containing 0.5 mM NaOH, methanol and 20 mM EDTA is added to each well and the plate is read using a Spectra MAX Gemini fluorescein plate reader (Molecular Devices Corp., Sunnyvale, Calif.).
Using the standard protein-binding assay described above, linkers 1-7 are evaluated for their ability to bind fluorescein-streptavidin or fluorescein-anti-DNP. The detection of fluorescence emission beyond that of the control would indicate that the fluorescein labeled protein has bound to the corresponding linker. Lack of fluorescence emission would indicate that either the linker or the fluorescein-bound proteins are absent, or that an improper linker was used. This may be interpreted as meaning that the protein of interest, in this exemplary example streptavidin or anti-DNP, “recognizes” the particular library compound being used in the experiment. […]

[1] = tested on: fluorescein-anti-DNP antibody (rabbit IgG fraction); test: Standard protein-binding assay: fluorescein-anti-DNP binding to linker on streptavidin-coated 96-well plates
Excerpt: as §1, §2
Using the standard protein-binding assay described above, linkers 1-7 are evaluated for their ability to bind fluorescein-streptavidin or fluorescein-anti-DNP. The detection of fluorescence emission beyond that of the control would indicate that the fluorescein labeled protein has bound to the corresponding linker. Lack of fluorescence emission would indicate that either the linker or the fluorescein-bound proteins are absent, or that an improper linker was used. This may be interpreted as meaning that the protein of interest, in this exemplary example streptavidin or anti-DNP, “recognizes” the particular library compound being used in the experiment. It is this “recognition” that constitutes the use of these plate libraries as “affinity probes”. While preliminary test results are reported for all of the tested linkers, particular emphasis will be on the data derived from testing of linkers 3 and 5. […]

O=C(CCCCC1SCC2NC(=O)NC21)NCCCOCCOCCOCCCNC(=O)CCCCC1SCC2NC(=O)NC21 (stereo not shown) [Linker 1]
Fluorescence emission detected (qualitative) (fluorescein-streptavidin): No fluorescence emission was detected

O=C(CCCCCNC(=O)CCCCC1SCC2NC(=O)NC21)NCCCCCNC(=O)CCCCCNC(=O)CCCCC1SCC2NC(=O)NC21 (stereo not shown) [Linker 2]
Fluorescence emission (fluorescein-streptavidin; Linker 2 62.5 nmol, no streptavidin-fluorescein (control)): 583
Fluorescence emission (fluorescein-streptavidin; Linker 2 62.5 nmol, streptavidin-fluorescein 73.5 pmol): 652
Fluorescence emission detected (qualitative) (fluorescein-streptavidin): Fluorescence emissions were detected

O=C(CCCCC1SCC2NC(=O)NC21)NCCCCCC(=O)NCCCOCCOCCOCCCNC(=O)COCC(=O)NCCCOCCOCCOCCCNC(=O)CCCCC1SCC2NC(=O)NC21 (stereo not shown) [Linker 4]
Fluorescence emission (fluorescein-streptavidin; Linker 4 5 nmol, no streptavidin-fluorescein (control)): 122
Fluorescence emission (fluorescein-streptavidin; Linker 4 5 nmol, streptavidin-fluorescein 100 pmol): 218
Fluorescence emission detected (qualitative) (fluorescein-streptavidin): Fluorescence emissions were detected

O=C(CCCCCNC(=O)CCCCC1SCC2NC(=O)NC21)NCCCCCNC(=O)CCCCCNc1ccc([N+](=O)[O-])cc1[N+](=O)[O-] (stereo not shown) [Linker 5]
Increase in fluorescence emission ([1]; 100-fold increase in linker 5 concentration): 2.5 fold
Fluorescence emission ([1]; [5] 50.0 nmol, fluorescein-anti-DNP 266 pmol): 197.62
Fluorescence emission ([1]; [5] 100.0 nmol, fluorescein-anti-DNP 266 pmol): 176.22
Fluorescence emission ([1]; [5] 200.0 nmol, fluorescein-anti-DNP 266 pmol): 172.66
Fluorescence emission ([1]; [5] 300.0 nmol, fluorescein-anti-DNP 266 pmol): 180.98
Fluorescence emission ([1]; [5] 400.0 nmol, fluorescein-anti-DNP 266 pmol): 225.98
Fluorescence emission ([1]; [5] 500.0 nmol, fluorescein-anti-DNP 266 pmol): 224.27
Fluorescence emission ([1]; [5] 1000.0 nmol, fluorescein-anti-DNP 266 pmol): 211.7
Fluorescence emission ([1]; [5] 2000.0 nmol, fluorescein-anti-DNP 266 pmol): 351.7
Fluorescence emission ([1]; [5] 3000.0 nmol, fluorescein-anti-DNP 266 pmol): 369.58
Fluorescence emission ([1]; [5] 4000.0 nmol, fluorescein-anti-DNP 266 pmol): 516.83
Fluorescence emission ([1]; [5] 5000.0 nmol, fluorescein-anti-DNP 266 pmol): 543.9
Effect on binding capacity of fluorescein-anti-DNP ([1]; generic System 1): significantly enhances the binding capacity
Fluorescence emission ([1]; linker 5 50 nmol, [α-DNP] 0 pmol (linker only)): 76.392
Fluorescence emission ([1]; linker 5 50 nmol, [α-DNP] 2.6 pmol): 101.45
Fluorescence emission ([1]; linker 5 50 nmol, [α-DNP] 5.3 pmol): 109.82
Fluorescence emission ([1]; linker 5 50 nmol, [α-DNP] 10.0 pmol): 129.19
Fluorescence emission ([1]; linker 5 50 nmol, [α-DNP] 16.0 pmol): 137.9
Fluorescence emission ([1]; linker 5 50 nmol, [α-DNP] 21.0 pmol): 160.48
Fluorescence emission ([1]; linker 5 50 nmol, [α-DNP] 27.0 pmol): 204.54
Fluorescence emission ([1]; linker 5 50 nmol, [α-DNP] 53.0 pmol): 306.3
Fluorescence emission ([1]; linker 5 50 nmol, [α-DNP] 106.0 pmol): 473.57
Fluorescence emission ([1]; linker 5 50 nmol, [α-DNP] 159.0 pmol): 615.29
Fluorescence emission ([1]; linker 5 50 nmol, [α-DNP] 212.0 pmol): 599.48
Fluorescence emission ([1]; linker 5 50 nmol, [α-DNP] 266.0 pmol): 561.46
Increase in fluorescence emission ([1]; linker 5, 10-fold increase in fluorescein-anti-DNP concentration (5.3 to 53 pmol)): approximately 3 fold

O=C(CCCCCNc1ccc([N+](=O)[O-])cc1[N+](=O)[O-])NCCCOCCOCCOCCCNC(=O)COCC(=O)NCCCOCCOCCOCCCNC(=O)CCCCC1SCC2NC(=O)NC21 (stereo not shown) [Linker 7]
Fluorescence emission (fluorescein-streptavidin; Linker 7 5 nmol, no streptavidin-fluorescein (control)): 112
Fluorescence emission (fluorescein-streptavidin; Linker 7 5 nmol, streptavidin-fluorescein 266 pmol): 208
Fluorescence emission detected (qualitative) (fluorescein-streptavidin): Fluorescence emissions were detected

NCCCCCNC(=O)CCCC[C@@H]1SC[C@@H]2NC(=O)N[C@@H]21 [Linker B-1596, reference compound]
Fluorescence emission (fluorescein-streptavidin; pre-linker B-1596 50 nmol replacing linker 3, streptavidin-fluorescein 100 pmol): remained at a level similar to reactions where no linker was used
